From patent US11771773B2, “Pharmaceutical preparation containing polyethylene gylcol loxenatide and preparation method thereof” (Jiangsu Hansoh Pharmaceutical Group Co., Ltd., priority 2016, dated 2023)

How the values were obtained:
[1] = tested on: type 2 diabetes db/db mice; details: injected subcutaneously once every three days

polyethylene glycol loxenatide
body weight [1]: reduced | efficacy compared with Exenatide injected subcutaneously twice a day [1]: comparable to that of Exenatide | fasting blood glucose [1]: significantly reduced | glucose tolerance [1]: improved | random blood glucose [1]: significantly reduced | serum fructosamine levels [1]: significantly reduced | glucose-dependent insulinotropic function (normal rats): Good glucose-dependent insulinotropic function
